Experimental data published in the supplement of paper PMC11208160.
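Note: IS621 bridge recombinase in Escherichia coli cells against a fixed T5 target plasmid.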

Test: recombinant UMI read abundance after kanamycin selection (control-corrected) (log10(CPM+1)); higher = more efficient recombination; extreme values may be limits of the assay; sequences stand for … in AGTGCAGAGAAAATCGGCCAGTTTTCTCTGCCTGCAGTCCGCATGCCGTGGGACCCCTTGGGTTCTAACCTGTTGCCTAGATTTATGCAGCGGACTGCCTTTCTCCCAAAGTGATAAACCGG…AGGTTGGTTTCACT; site = the 11-nt donor
Summary of the method: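 Values, expressed as log10(CPM+1), derive from recombinant UMI counts converted to CPM, averaged across replicates and scaled by control-derived factors. Plating was with IPTG (0.07 mM) plus kanamycin or unselected, two replicates each. The screen pooled donor and donor-binding-loop pairs for the IS621 bridge recombinase in Escherichia coli.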
In the case of “CCCAAAGCATGGACCGGTTTTCCCGGTAATCCGTATTTGAT (site CCTAAAGCTAT)”, the “recombinant UMI read abundance (log10)” value was 0.00406.
In the case of “CCCAATACATGGACCGGTTTTCCCGGTAATCCGTATTTGGC (site CCAAATACTGC)”, the “recombinant UMI read abundance (log10)” value was 0.
With “CCCAATACATGGACCGGTTTTCCCGGTAATCCGTATTTGGC (site CCCAATACTGC)” the “recombinant UMI read abundance (log10)” value was 0.
With “CCCAATACATGGACCGGTTTTCCCGGTAATCCGTATTTGGC (site CCGAATACTGC)” the “recombinant UMI read abundance (log10)” value was 0.
In the case of “CCCAATACATGGACCGGTTTTCCCGGTAATCCGTATTTGGC (site CCTAATACTGC)”, the “recombinant UMI read abundance (log10)” value was 0.
In the case of “CCCACATCATGGACCGGTTTTCCCGGTAATCCGTATTTGTC (site CCCAAATCTGA)”, the “recombinant UMI read abundance (log10)” value was 0.
In the case of “CCCACATCATGGACCGGTTTTCCCGGTAATCCGTATTTGTC (site CCCACATCTGA)”, the “recombinant UMI read abundance (log10)” value was 0.453.
With “CCCACATCATGGACCGGTTTTCCCGGTAATCCGTATTTGTC (site CCCAGATCTGA)” the “recombinant UMI read abundance (log10)” value was 0.
For “CCCACATCATGGACCGGTTTTCCCGGTAATCCGTATTTGTC (site CCCATATCTGA)”, the “recombinant UMI read abundance (log10)” value was 0.
With “CCCATAGCATGGACCGGTTTTCCCGGTAATCCGTATTTGTC (site CCCATAACTGA)” the “recombinant UMI read abundance (log10)” value was 0.433.
For “CCCATAGCATGGACCGGTTTTCCCGGTAATCCGTATTTGTC (site CCCATACCTGA)”, the “recombinant UMI read abundance (log10)” value was 0.
For “CCCATAGCATGGACCGGTTTTCCCGGTAATCCGTATTTGTC (site CCCATAGCTGA)”, the “recombinant UMI read abundance (log10)” value was 1.56.
For “CCCATAGCATGGACCGGTTTTCCCGGTAATCCGTATTTGTC (site CCCATATCTGA)”, the “recombinant UMI read abundance (log10)” value was 0.
For “CCCATATCATGGACCGGTTTTCCCGGTAATCCGTATTTGTT (site CCCATATCTAA)”, the “recombinant UMI read abundance (log10)” value was 1.01.
For “CCCATATCATGGACCGGTTTTCCCGGTAATCCGTATTTGTT (site CCCATATCTCA)”, the “recombinant UMI read abundance (log10)” value was 0.0132.
In the case of “CCCATATCATGGACCGGTTTTCCCGGTAATCCGTATTTGTT (site CCCATATCTGA)”, the “recombinant UMI read abundance (log10)” value was 0.
For “CCCATATCATGGACCGGTTTTCCCGGTAATCCGTATTTGTT (site CCCATATCTTA)”, the “recombinant UMI read abundance (log10)” value was 0.
With “CCCATCTCATGGACCGGTTTTCCCGGTAATCCGTATTTGGG (site CCCATCTCTCC)” the “recombinant UMI read abundance (log10)” value was 0.
With “CCCATCTCATGGACCGGTTTTCCCGGTAATCCGTATTTGGG (site CCCCTCTCTCC)” the “recombinant UMI read abundance (log10)” value was 0.078.
In the case of “CCCATCTCATGGACCGGTTTTCCCGGTAATCCGTATTTGGG (site CCCGTCTCTCC)”, the “recombinant UMI read abundance (log10)” value was 0.00519.
In the case of “CCCATCTCATGGACCGGTTTTCCCGGTAATCCGTATTTGGG (site CCCTTCTCTCC)”, the “recombinant UMI read abundance (log10)” value was 0.0111.
In the case of “CCCCACACATGGACCGGTTTTCCCGGTAATCCGTATTTGGA (site CCCCACACTTA)”, the “recombinant UMI read abundance (log10)” value was 0.369.
In the case of “CCCCACACATGGACCGGTTTTCCCGGTAATCCGTATTTGGA (site CCCCACACTTC)”, the “recombinant UMI read abundance (log10)” value was 0.275.
For “CCCCACACATGGACCGGTTTTCCCGGTAATCCGTATTTGGA (site CCCCACACTTG)”, the “recombinant UMI read abundance (log10)” value was 0.
In the case of “CCCCACACATGGACCGGTTTTCCCGGTAATCCGTATTTGGA (site CCCCACACTTT)”, the “recombinant UMI read abundance (log10)” value was 0.
In the case of “CCCCACACATGGACCGGTTTTCCCGGTAATCCGTATTTGTG (site CCCCACACTAA)”, the “recombinant UMI read abundance (log10)” value was 0.0034.
For “CCCCACACATGGACCGGTTTTCCCGGTAATCCGTATTTGTG (site CCCCACACTCA)”, the “recombinant UMI read abundance (log10)” value was 0.00514.
For “CCCCACACATGGACCGGTTTTCCCGGTAATCCGTATTTGTG (site CCCCACACTGA)”, the “recombinant UMI read abundance (log10)” value was 0.
In the case of “CCCCACACATGGACCGGTTTTCCCGGTAATCCGTATTTGTG (site CCCCACACTTA)”, the “recombinant UMI read abundance (log10)” value was 0.0257.
With “CCCCACTCATGGACCGGTTTTCCCGGTAATCCGTATTTGTA (site CCCCACACTTA)” the “recombinant UMI read abundance (log10)” value was 0.
In the case of “CCCCACTCATGGACCGGTTTTCCCGGTAATCCGTATTTGTA (site CCCCACCCTTA)”, the “recombinant UMI read abundance (log10)” value was 0.00571.
With “CCCCACTCATGGACCGGTTTTCCCGGTAATCCGTATTTGTA (site CCCCACGCTTA)” the “recombinant UMI read abundance (log10)” value was 0.00566.
For “CCCCACTCATGGACCGGTTTTCCCGGTAATCCGTATTTGTA (site CCCCACTCTTA)”, the “recombinant UMI read abundance (log10)” value was 2.01.
With “CCCCATTCATGGACCGGTTTTCCCGGTAATCCGTATTTGGA (site CCCCATTCTTC)” the “recombinant UMI read abundance (log10)” value was 0.274.
For “CCCCCTACATGGACCGGTTTTCCCGGTAATCCGTATTTGAG (site CACCCTACTCT)”, the “recombinant UMI read abundance (log10)” value was 0.0202.
With “CCCCCTACATGGACCGGTTTTCCCGGTAATCCGTATTTGAG (site CCCCCTACTCT)” the “recombinant UMI read abundance (log10)” value was 0.0375.
With “CCCCCTACATGGACCGGTTTTCCCGGTAATCCGTATTTGAG (site CGCCCTACTCT)” the “recombinant UMI read abundance (log10)” value was 0.0197.
With “CCCCCTACATGGACCGGTTTTCCCGGTAATCCGTATTTGAG (site CTCCCTACTCT)” the “recombinant UMI read abundance (log10)” value was 0.011.
In the case of “CCCCGGGCATGGACCGGTTTTCCCGGTAATCCGTATTTGGG (site CCCCGGGCTCC)”, the “recombinant UMI read abundance (log10)” value was 0.182.
In the case of “CCCGAAGCATGGACCGGTTTTCCCGGTAATCCGTATTTGTT (site CCCGAAGCTAA)”, the “recombinant UMI read abundance (log10)” value was 1.18.
In the case of “CCCGAGACATGGACCGGTTTTCCCGGTAATCCGTATTTGGT (site CCCGAGACTAC)”, the “recombinant UMI read abundance (log10)” value was 0.543.
For “CCCGATCCATGGACCGGTTTTCCCGGTAATCCGTATTTGTG (site CCCGATCCTCA)”, the “recombinant UMI read abundance (log10)” value was 1.73.
With “CCCGCACCATGGACCGGTTTTCCCGGTAATCCGTATTTGCA (site CCCGCACCTTG)” the “recombinant UMI read abundance (log10)” value was 0.
In the case of “CCCGCCACATGGACCGGTTTTCCCGGTAATCCGTATTTGCC (site CCCGCCACTGG)”, the “recombinant UMI read abundance (log10)” value was 2.07.
In the case of “CCCGCGGCATGGACCGGTTTTCCCGGTAATCCGTATTTGGG (site CCCGCGGCTCC)”, the “recombinant UMI read abundance (log10)” value was 0.0266.
With “CCCGGTCCATGGACCGGTTTTCCCGGTAATCCGTATTTGCA (site ACCGGTCCTTG)” the “recombinant UMI read abundance (log10)” value was 0.
With “CCCGGTCCATGGACCGGTTTTCCCGGTAATCCGTATTTGCA (site CACGGTCCTTG)” the “recombinant UMI read abundance (log10)” value was 0.
For “CCCGGTCCATGGACCGGTTTTCCCGGTAATCCGTATTTGCA (site CCAGGTCCTTG)”, the “recombinant UMI read abundance (log10)” value was 0.
For “CCCGGTCCATGGACCGGTTTTCCCGGTAATCCGTATTTGCA (site CCCAGTCCTTG)”, the “recombinant UMI read abundance (log10)” value was 0.
In the case of “CCCGGTCCATGGACCGGTTTTCCCGGTAATCCGTATTTGCA (site CCCCGTCCTTG)”, the “recombinant UMI read abundance (log10)” value was 0.0143.
In the case of “CCCGGTCCATGGACCGGTTTTCCCGGTAATCCGTATTTGCA (site CCCGATCCTTG)”, the “recombinant UMI read abundance (log10)” value was 0.
With “CCCGGTCCATGGACCGGTTTTCCCGGTAATCCGTATTTGCA (site CCCGCTCCTTG)” the “recombinant UMI read abundance (log10)” value was 0.
With “CCCGGTCCATGGACCGGTTTTCCCGGTAATCCGTATTTGCA (site CCCGGACCTTG)” the “recombinant UMI read abundance (log10)” value was 0.
For “CCCGGTCCATGGACCGGTTTTCCCGGTAATCCGTATTTGCA (site CCCGGCCCTTG)”, the “recombinant UMI read abundance (log10)” value was 0.
For “CCCGGTCCATGGACCGGTTTTCCCGGTAATCCGTATTTGCA (site CCCGGGCCTTG)”, the “recombinant UMI read abundance (log10)” value was 0.00671.
In the case of “CCCGGTCCATGGACCGGTTTTCCCGGTAATCCGTATTTGCA (site CCCGGTACTTG)”, the “recombinant UMI read abundance (log10)” value was 0.
For “CCCGGTCCATGGACCGGTTTTCCCGGTAATCCGTATTTGCA (site CCCGGTCCTAG)”, the “recombinant UMI read abundance (log10)” value was 0.
For “CCCGGTCCATGGACCGGTTTTCCCGGTAATCCGTATTTGCA (site CCCGGTCCTCG)”, the “recombinant UMI read abundance (log10)” value was 0.
In the case of “CCCGGTCCATGGACCGGTTTTCCCGGTAATCCGTATTTGCA (site CCCGGTCCTGG)”, the “recombinant UMI read abundance (log10)” value was 0.
With “CCCGGTCCATGGACCGGTTTTCCCGGTAATCCGTATTTGCA (site CCCGGTCCTTA)” the “recombinant UMI read abundance (log10)” value was 0.0178.
In the case of “CCCGGTCCATGGACCGGTTTTCCCGGTAATCCGTATTTGCA (site CCCGGTCCTTC)”, the “recombinant UMI read abundance (log10)” value was 0.
For “CCCGGTCCATGGACCGGTTTTCCCGGTAATCCGTATTTGCA (site CCCGGTCCTTG)”, the “recombinant UMI read abundance (log10)” value was 0.
In the case of “CCCGGTCCATGGACCGGTTTTCCCGGTAATCCGTATTTGCA (site CCCGGTCCTTT)”, the “recombinant UMI read abundance (log10)” value was 0.0121.
For “CCCGGTCCATGGACCGGTTTTCCCGGTAATCCGTATTTGCA (site CCCGGTGCTTG)”, the “recombinant UMI read abundance (log10)” value was 0.
With “CCCGGTCCATGGACCGGTTTTCCCGGTAATCCGTATTTGCA (site CCCGGTTCTTG)” the “recombinant UMI read abundance (log10)” value was 0.
In the case of “CCCGGTCCATGGACCGGTTTTCCCGGTAATCCGTATTTGCA (site CCCGTTCCTTG)”, the “recombinant UMI read abundance (log10)” value was 0.
With “CCCGGTCCATGGACCGGTTTTCCCGGTAATCCGTATTTGCA (site CCCTGTCCTTG)” the “recombinant UMI read abundance (log10)” value was 0.00802.
For “CCCGGTCCATGGACCGGTTTTCCCGGTAATCCGTATTTGCA (site CCGGGTCCTTG)”, the “recombinant UMI read abundance (log10)” value was 0.00973.
With “CCCGGTCCATGGACCGGTTTTCCCGGTAATCCGTATTTGCA (site CCTGGTCCTTG)” the “recombinant UMI read abundance (log10)” value was 0.00597.
In the case of “CCCGGTCCATGGACCGGTTTTCCCGGTAATCCGTATTTGCA (site CGCGGTCCTTG)”, the “recombinant UMI read abundance (log10)” value was 0.
With “CCCGGTCCATGGACCGGTTTTCCCGGTAATCCGTATTTGCA (site CTCGGTCCTTG)” the “recombinant UMI read abundance (log10)” value was 0.00601.
For “CCCGGTCCATGGACCGGTTTTCCCGGTAATCCGTATTTGCA (site GCCGGTCCTTG)”, the “recombinant UMI read abundance (log10)” value was 0.
In the case of “CCCGGTCCATGGACCGGTTTTCCCGGTAATCCGTATTTGCA (site TCCGGTCCTTG)”, the “recombinant UMI read abundance (log10)” value was 0.00534.
For “CCCGGTCCATGGACCGGTTTTCCCGGTAATCCGTATTTGCT (site CCCGGTCCTAG)”, the “recombinant UMI read abundance (log10)” value was 0.
With “CCCGGTCCATGGACCGGTTTTCCCGGTAATCCGTATTTGCT (site CCCGGTCCTCG)” the “recombinant UMI read abundance (log10)” value was 0.0027.
